SMILES strings stand for the structures.

Drawing on ChEMBL document CHEMBL3507680, “University of Dundee, Gates Library screen for HepG2 cell viability”, this text covers cytotoxicity for 104 molecules.

This data set in a line: Human HepG2 cell viability assay in 384 well format. To be noted: HepG2 cells, read-out: Inhibition. It is filed as toxicity, cell-based. Also on record: dose 125 nL, time 70.5 hour; concentration not given beside the values.
For the molecule `N#Cc1cc(F)ccc1CN1CCCCC1Cn1cncn1` (centres undefined), the cytotoxicity at 70.5 h was -4.9%. As for `CC(=O)N1CCCN(CCCSc2ccccc2Cl)CC1`, the figure is -6.8%. Then `Cc1ccc(CNCc2cc(Br)c3c(c2)OCO3)cc1`, with -5.25%; and `N#Cc1cccc(CN2CCCC2Cn2cncn2)c1` (centres undefined), with -4.98%; and `CC(=O)N1CCCN(CCCSCc2ccccc2)CC1`, with -6.67%. Then `COC(=O)c1cc(NCc2cscn2)ccc1C`, with -4.82%; and `CN(Cc1cc(Cl)cc2cccnc12)CC1CCN(CCO)CC1`, with -2.37%.

With `CC(c1nc(-c2ccccc2)no1)N1CCc2c(ncn2C2CC2)C1` (centres undefined), the cytotoxicity at 70.5 h was -2.24%. As to `CCNC(=O)c1ccc(NC(=O)N(C)Cc2cccn2C)c(C)c1`, the cytotoxicity at 70.5 h amounted to 5.27%.

In the case of `CCC1(CC)CC(=O)N(CC(O)c2ccc(Cl)cc2)C1=O` (centres undefined), the cytotoxicity at 70.5 h was -4.91%. Then `COCCCNC(=O)Nc1c(C)cccc1C(C)C`, with -9.85%. As for `COCC(C)NC(=O)c1sccc1-n1cnnn1` (centres undefined), the figure is -2.58%; as for `O=S(=O)(NCCCn1cncn1)c1ccc2c(c1)CCC2`, -5.6%. Then `OC(CNCCc1nnc2ccccn12)c1ccc2c(c1)OCO2` (centres undefined), with -5.97%; and `CCc1cccc(C)c1NC(=O)NCCCN(CC)S(C)(=O)=O`, with -3.01%. For the molecule `CCN(CCCNC(=O)Nc1ccccc1C(C)C)S(C)(=O)=O`, the cytotoxicity at 70.5 h is -4.67%. Then `C[S+]([O-])c1cccc(NC(=O)N[C@H](CCO)c2ccccc2)c1` (some centres undefined), with -2.3%. As for `Cc1nnc(CN(C)CC(=O)NC(C)(C)c2ccc(F)cc2)n1C`, the cytotoxicity at 70.5 h was -6.19%.

For the molecule `Cc1ccc(S(=O)(=O)Cc2nnc(C)n2C)cc1`, the cytotoxicity at 70.5 h was -2.49%. As for `O=C(Nc1ccc2c(c1)C(=O)NC2=O)c1cccs1`, the figure is -4.03%. Then `CC(C)c1nnc2n1CCN(Cc1cccc3c1OCCO3)C2`, with 30%; and `CC1CCC(O)(CSc2nnnn2C2CC2)CC1` (centres undefined), with -1.68%; and `O=S(=O)(NCCCn1cncn1)c1ccc2c(c1)CCO2`, with -5.26%. Turning to `CC1CN(CC(=O)NCCc2ccccc2)CCN1c1nccs1` (centres undefined), the cytotoxicity at 70.5 h is -5.41%. Then `COc1ccccc1CNC(=O)N1CCCC(CO)C1` (centres undefined), with 11.7%; and `COc1cc(NC(=O)c2cccc(N(C)C)c2)cc(OC)c1`, with -7.19%; and `CCc1noc(C(C)N2CCC(NS(=O)(=O)c3cccs3)CC2)n1` (centres undefined), with -11.6%. As for `CC(c1nc(C2CC2)no1)N1CCC(NS(=O)(=O)c2cccs2)CC1` (centres undefined), the figure is -13.4%; as for `COc1cc(C(=O)NC2COc3ccccc3C2)ccc1OCC(N)=O` (centres undefined), -9.85%; as for `O=C(CN1CCc2cncnc2C1)NC1CCCCNC1=O` (centres undefined), 0.54%. Then `CCn1ccnc1CN1CCCN(C(=O)c2cncnc2C)CC1`, with 0.803%; and `NC1(c2nc(-c3cccs3)cc(=O)[nH]2)CCCC1`, with 8.08%; and `Cn1nc2c(cc1=O)CN(CC(=O)NC1CCCCNC1=O)CC2` (centres undefined), with 12.7%. Consider `O=C(NCCc1nncn1C1CC1)C1SCCc2sccc21` (centres undefined), for which the cytotoxicity at 70.5 h is -8.14%.

Regarding `COCCN(C(=O)c1ccc(OC)cc1)c1ccc(C#N)cc1`, the cytotoxicity at 70.5 h worked out at 10.5%. Then `COc1ccccc1CC(NC(=O)N1CCOCC1)C(C)C` (centres undefined), with 17.3%. As for `CC(=O)N1CCCN(Cc2csc(C)n2)c2ccccc21`, the figure is -2.52%; as for `CNC(=O)c1coc(-c2csc(C)n2)c1`, -6.74%; as for `COc1cccc(/C=C/CCN2CCN(S(C)(=O)=O)CC2)c1`, -3.47%.

Turning to `COc1cc(NC(=O)N(C)CC2CC2)ncn1`, the cytotoxicity at 70.5 h was -7.89%.

In the case of `Cc1nc(C(C)(C)NCc2ncc(C(C)C)o2)sc1C`, the cytotoxicity at 70.5 h was -5.11%.

`CC(=O)N1CCCN(Cc2ccon2)c2ccccc21`: the cytotoxicity at 70.5 h was 18.6%. Then `COCCN(CCOC)C(=O)c1ccoc1C`, with -6.19%; and `CCOCCN1CCN(CC(=O)NC2(C#N)CCCC2)CC1CC` (centres undefined), with 0.4%; and `Cc1ncncc1C(=O)N1CCCN(Cc2ncc(Cl)n2C)CC1`, with -1.21%. As for `COc1ccccc1NCC(=O)Nc1cnn(Cc2ccccn2)c1`, the figure is -3.02%; as for `COc1cccc(/C=C/CCN2CCCN(C(C)=O)CC2)c1`, -6.2%; as for `CCOc1ccccc1N(C)Cc1nccn1C`, 4.63%. Then `Cc1ccc2cccc(C(=O)NCCOCC3CC3)c2n1`, with -0.418%; and `O=C(NCCc1cccnc1)NCCc1cccs1`, with 2.09%; and `CC(C)Cc1noc(CN2CCC(C(=O)NCC3CCCO3)CC2)n1` (centres undefined), with 10.6%. For the molecule `COCCn1nc(C(=O)N2CCOCC2C)ccc1=O` (centres undefined), the cytotoxicity at 70.5 h turned out to be 16.9%.

For the molecule `COc1ccncc1NC(=O)C1(c2ccc(F)cc2)CCC1`, the cytotoxicity at 70.5 h was -6.62%. As for `COC(=O)c1ccc(N2CCN(C(=O)C3CCC3)C(C)C2)cc1` (centres undefined), the figure is 17.6%. For the molecule `COC(=O)CCNC(=O)c1nnn(-c2ccccc2)c1C(F)(F)F`, the cytotoxicity at 70.5 h is 0.121%. Then `Cc1nnc2n1CCN(CC(=O)NC(C)c1ccc3ccccc3c1)C2` (centres undefined), with 17.7%; and `COC(=O)c1ccc(N2CCN(C(=O)CC(F)(F)F)C(C)C2)cc1` (centres undefined), with -9.89%; and `Cc1cc(C(=O)NC2(C#N)CCCC2)c(C)n1-c1cccnc1`, with -6.05%.

As for `CCc1nc(CNC2CCN(c3ccc(OC)cc3)CC2)cs1`, the cytotoxicity at 70.5 h is -5.26%. As for `Cc1c(C(=O)N2CCCOCC2)nnn1-c1cccc2cnccc12`, the figure is -0.438%; as for `Cc1cc(NC(=O)CNC(C)(C)c2nc(C)c(C)s2)no1`, -7.18%; as for `Cn1c(=O)[nH]c2cc(C(=O)OCCCn3ccccc3=O)ccc21`, 33.2%. Turning to `NC(=O)NC(=O)CCN1CCN(CC2CC2)c2ccccc21`, the cytotoxicity at 70.5 h stood at 31.2%. As for `NC(=O)NC(=O)CN1CCN(CC2CC2)c2ccccc21`, the figure is 8.16%; as for `Cc1c(C(=O)N2CC(C)(C)C2(C)C)nnn1-c1cccc2cnccc12`, -2.78%; as for `Cc1c(C(=O)N2CC(O)C2)nnn1-c1cccc2cnccc12`, -8.03%.

On to `COc1ccccc1C(=O)N(Cc1nc(C)cs1)CC1CCCO1` (centres undefined), for which the cytotoxicity at 70.5 h is 22.1%. As for `CC(C)Cc1noc(CNc2cccc(-c3nnnn3C)c2)n1`, the figure is -11%; as for `Cc1csc(CN(CC2CCCO2)C(=O)c2ccc(C)nc2C)n1` (centres undefined), 15.4%; as for `CCOCCOC(C)C(=O)NCc1ccc(N2CCCCC2)cc1` (centres undefined), 0.804%.

As for `Cc1csc(CN(CC2CCCO2)C(=O)c2occc2C)n1` (centres undefined), the cytotoxicity at 70.5 h came to 22.1%. Then `CS(=O)(=O)NCC1CCCCN1Cc1cccc(C#N)c1` (centres undefined), with -1.33%; and `CCOc1ccnc(N2CCCN(c3nc(CC)ns3)CC2)n1`, with -2.91%; and `CC(C(=O)Nc1ccc(C#N)cc1)N1CCc2ccccc21` (centres undefined), with 43.4%. As for `c1csc(-c2nc(CN3CCN(c4cnccn4)CC3)co2)c1`, the figure is -18.4%; as for `CCNC(=O)NC(=O)C(C)Nc1ccccc1OCCOC` (centres undefined), -11.3%. As for `CN(CC(=O)Nc1nc2c(s1)CCC2)C(=O)c1cccs1`, the figure is -12.8%; as for `NC(=O)CN(CC(=O)NCc1cc(F)cc(F)c1)C1CCCC1`, -10.9%; as for `Cc1ccc(N2CCCN(C(=O)c3cccc4c3ccn4C)CC2)nn1`, -7.32%. Regarding `COC(=O)N1CCCC(NC(=O)NCc2csc(C)n2)C1` (centres undefined), the cytotoxicity at 70.5 h is -10.6%. Then `CCNc1cc2c(nn1)CCN(C(=O)C1COc3ccccc3O1)C2` (centres undefined), with -12.7%; and `CCNc1cc2c(nn1)CCN(C(=O)C1COc3ccccc3C1)C2` (centres undefined), with -12.3%; and `COCc1ccc(C(=O)N2CCN(CCS(C)(=O)=O)CC2)cc1`, with -10.7%.

As to `CC(C)CCS(=O)(=O)CC(=O)N1CCCC1c1cnn(C)c1` (centres undefined), the cytotoxicity at 70.5 h is -5.18%. Then `CN(C)c1cc2c(nn1)CCN(C(=O)C1COc3ccccc3C1)C2` (centres undefined), with 3.17%; and `CN(C)c1cc2c(nn1)CCN(C(=O)c1cc3c(s1)CCOC3)C2`, with -15.2%. For `Cc1csc(C2CCCN(C(=O)c3cnn4ccc(C)nc34)C2)n1` (centres undefined), the cytotoxicity at 70.5 h was -8.34%. `CC(CNC(=O)c1cc(N2CCNC2=O)ccc1F)c1ccccc1` (centres undefined): the cytotoxicity at 70.5 h was -6.76%.

With `COCCNc1ccccc1CNC(=O)NCc1cnc(C)s1`, the cytotoxicity at 70.5 h was -0.0167%. As for `COCCNc1ccccc1CNC(=O)NCc1nc(C)c(C)s1`, the figure is -7.21%; as for `CCOCCN1CCN(CCC(=O)N2CCCCC2)CC1`, -8.84%. Then `COc1cc(CN2CCC(NC(=O)c3cccn3C)C2)cc(OC)c1` (centres undefined), with -7.95%. As for `CCCNC(=O)Cn1c(C)nn(C(C)(C)C)c1=O`, the figure is 9.3%; as for `CC(C)N(CCNC(=O)N1CCCC(N(C)C)C1)C1CC1` (centres undefined), 13.5%; as for `COC1CCN(CCNC(=O)NC(C)c2ccc(F)c(F)c2)CC1` (centres undefined), 23.5%. For `CCCNC1(c2ccc(Cl)cc2)CCOCC1`, the cytotoxicity at 70.5 h worked out at 6.67%. Take `O=C(CNC(=O)C1CC1)NCc1ccc(Cl)s1`: the cytotoxicity at 70.5 h is 1.44%. For the molecule `Cc1sc(-c2ccco2)nc1C(=O)N(CC1CCOC1)C1CC1` (centres undefined), the cytotoxicity at 70.5 h was -1.94%. Then `CCN(CC1CCOC1)C(=O)c1nc(-c2ccco2)sc1C` (centres undefined), with -2.01%. Then `Cc1sc(-c2ccco2)nc1C(=O)NCC1CCOC1` (centres undefined), with 1.39%. As for `O=C(Nc1ccc(-n2cncn2)nc1)N(CC1CCOC1)C1CC1` (centres undefined), the figure is -1.97%; as for `Cc1sc(-c2ccco2)nc1C(=O)N(CC(N)=O)C1CCCC1`, -2.05%. In the case of `CC(c1ccc(F)cc1F)N1CCN(CCC(=O)O)CC1` (centres undefined), the cytotoxicity at 70.5 h is -6.34%. As to `CC(NCc1ccc(C(N)=O)cc1)c1ccc(Cl)c(Cl)c1` (centres undefined), the cytotoxicity at 70.5 h is -11.9%.
